Assay results reported in patent publication US20240252488A1 (KOREA RESEARCH INSTITUTE OF CHEMICAL TECHNOLOGY, priority 2020, published 2024).

Tests used:
FADD−/− Jurkat cells = assay: Necroptosis inhibition assay, TNF-α-induced necroptosis (CellTiter-Glo 2.0); assay type: cell-based, human; settings: TNF-α 15 ng/mL, FADD−/− Jurkat cells; for Necroptosis inhibition assay (Rescue %) 1 μM: compound 1 μM; for Necroptosis inhibition assay (Rescue %) 10 μM: compound 10 μM
Summary of the method: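 Cmpd 0.1/1/10 μM final, 30 min RT preincubation; TNF-α 15 ng/mL final; 20–24 h, 37° C, 5% CO2. Readout: ATP luminescence (reagent 1:3 in PBS), 0.5 s/well. Cytotoxicity and % necroptosis inhibition calculated from signal.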

MLKL [1] = molecular target: T1, MLKL (Homo sapiens, UniProt Q8NB16); assay: MLKL degradation assay in HepG2 cell line (western blot); assay type: cell-based; set-up: endogenous in cells; host or cells: HepG2 or HaCaT; settings: cell line not given; for Degradation assay (Degradation %) 1 μM: compound 1 μM; for Degradation assay (Degradation %) 10 μM: compound 10 μM
T1 sequence (Q8NB16 1-471): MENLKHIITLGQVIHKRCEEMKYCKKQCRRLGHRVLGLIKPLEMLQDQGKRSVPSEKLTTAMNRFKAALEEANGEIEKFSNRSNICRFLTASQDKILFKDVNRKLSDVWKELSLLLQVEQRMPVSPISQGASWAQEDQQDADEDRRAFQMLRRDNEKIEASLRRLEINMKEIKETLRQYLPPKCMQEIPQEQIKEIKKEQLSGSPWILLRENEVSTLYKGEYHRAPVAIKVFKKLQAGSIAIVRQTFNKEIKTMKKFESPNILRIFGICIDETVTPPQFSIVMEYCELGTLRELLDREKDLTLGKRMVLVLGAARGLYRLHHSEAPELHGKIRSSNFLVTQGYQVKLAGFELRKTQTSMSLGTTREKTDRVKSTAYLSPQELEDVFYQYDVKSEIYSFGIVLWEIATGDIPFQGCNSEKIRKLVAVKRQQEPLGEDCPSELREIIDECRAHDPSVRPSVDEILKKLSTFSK
Summary of the method: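 HepG2, cpd final 1 or 10 μM, 20-24 h, 37 °C/5% CO2; RIPA lysis, BCA-normalized, 10-15 μg/lane SDS-PAGE, western blot, ECL read-out.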

MLKL [2] = molecular target: T1, MLKL; assay: Measurement of binding affinity with MLKL receptor (competitive binding assay, Kd); set-up: made in house; host or cells: HEK 293 cell line (T7 phage in E. coli BL21-derived host is also described)
Summary of the method: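 qPCR of MLKL eluted from liganded beads served as the read-out, from which Kd was derived. The protein was made in HEK 293 cells with a DNA tag, and test compounds competed with the bead-bound ligand at 0.9% final DMSO.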

SMILES	Necroptosis inhibition assay (Rescue %) 1 μM (FADD−/− Jurkat cells) [%]	Necroptosis inhibition assay (Rescue %) 10 μM (FADD−/− Jurkat cells) [%]	Degradation assay (Degradation %) 1 μM (MLKL [1]) [%]	Degradation assay (Degradation %) 10 μM (MLKL [1]) [%]	Kd (MLKL [2]) [nM]
COc1cccc(NC(=O)[C@H](OC(=O)c2nc(-c3cnn(C4CCN(CCCN5CCN(C(=O)COc6ccc7c(c6)C(=O)N(C6CCC(=O)NC6=O)C7=O)CC5)CC4)c3)cnc2N)c2ccccc2)c1 (stereo partly drawn) [TDH-486, (R)-2-((3-methoxyphenyl)amino)-2-oxo-1-phenylethyl 3-amino-6-(1-(1-(3-(4-(2-((2-(2,6-dioxopiperidin-3-yl)-1,3-dioxoisoindolin-5-yl)oxy)acetyl)piperazin-1-yl)propyl)piperidin-4-yl)-1H-pyrazol-4-yl)pyrazine-2-carboxylate]	77.72	34.5	85.37	88.15	2.5
Cc1cccc(NC(=O)[C@H](OC(=O)c2nc(-c3cnn(C4CCN(CCCN5CCN(C(=O)COc6ccc7c(c6)C(=O)N(C6CCC(=O)NC6=O)C7=O)CC5)CC4)c3)cnc2N)c2ccccc2)c1 (stereo partly drawn) [TDH-487, (R)-2-oxo-1-phenyl-2-(m-tolylamino)ethyl 3-amino-6-(1-(1-(3-(4-(2-((2-(2,6-dioxopiperidin-3-yl)-1,3-dioxoisoindolin-5-yl)oxy)acetyl)piperazin-1-yl)propyl)piperidin-4-yl)-1H-pyrazol-4-yl)pyrazine-2-carboxylate]	59.49	58.14	77.25	89.93	4.3
Nc1ncc(-c2cnn(C3CCN(CCCN4CCN(c5ccc6c(c5)C(=O)N(C5CCC(=O)NC5=O)C6=O)CC4)CC3)c2)nc1C(=O)N[C@@H](C(=O)Nc1ccc(F)cc1)c1ccccc1 (stereo partly drawn) [TDH-491, 3-amino-6-(1-(1-(3-(4-(2-(2,6-dioxopiperidin-3-yl)-1,3-dioxoisoindolin-5-yl)piperazin-1-yl)propyl)piperidin-4-yl)-1H-pyrazol-4-yl)-N-((R)-2-((4-fluorophenyl)amino)-2-oxo-1-phenylethyl)pyrazine-2-carboxamide]	0.07	−24.78	19.04	14.39	78
Nc1ncc(-c2cnn(C3CCN(CCCN4CCN(C(=O)COc5ccc6c(c5)C(=O)N(C5CCC(=O)NC5=O)C6=O)CC4)CC3)c2)nc1C(=O)N[C@@H](C(=O)Nc1ccc(F)cc1)c1ccccc1 (stereo partly drawn) [TDH-492, 3-amino-6-(1-(1-(3-(4-(2-((2-(2,6-dioxopiperidin-3-yl)-1,3-dioxoisoindolin-5-yl)oxy)acetyl)piperazin-1-yl)propyl)piperidin-4-yl)-1H-pyrazol-4-yl)-N-((R)-2-((4-fluorophenyl)amino)-2-oxo-1-phenylethyl)pyrazine-2-carboxamide]	10.33	4.12	13.74	14.89	39
Nc1ncc(-c2cnn(C3CCN(CCCN4CCN(C(=O)COc5ccc6c(c5)C(=O)N(C5CCC(=O)NC5=O)C6=O)CC4)CC3)c2)nc1C(=O)O[C@@H](C(=O)Nc1ccc(F)cc1)c1ccccc1Cl (stereo partly drawn) [TDH-494, (R)-1-(2-chlorophenyl)-2-((4-fluorophenyl)amino)-2-oxoethyl 3-amino-6-(1-(1-(3-(4-(2-((2-(2,6-dioxopiperidin-3-yl)-1,3-dioxoisoindolin-5-yl)oxy)acetyl)piperazin-1-yl)propyl)piperidin-4-yl)-1H-pyrazol-4-yl)pyrazine-2-carboxylate]	43.07	−7.06	80.66	88.82	0.98
Nc1ncc(-c2cnn(C3CCN(CCCN4CCN(C(=O)Cc5cccc(NC6=CC(=O)N(C7CCC(=O)NC7=O)C6=O)c5)CC4)CC3)c2)nc1C(=O)O[C@@H](C(=O)Nc1ccc(F)cc1)c1ccccc1 (stereo partly drawn) [TDH-495, (R)-2-((4-fluorophenyl)amino)-2-oxo-1-phenylethyl 3-amino-6-(1-(1-(3-(4-(2-(3-((1-(2,6-dioxopiperidin-3-yl)-2,5-dioxo-2,5-dihydro-1H-pyrrol-3-yl)amino)phenyl)acetyl)piperazin-1-yl)propyl)piperidin-4-yl)-1H-pyrazol-4-yl)pyrazine-2-carboxylate]	42.19	17.62	81.34	85.73	1.3
Nc1ncc(-c2cnn(C3CCN(CCOC4CCN(C(=O)Cc5cccc(NC6=CC(=O)N(C7CCC(=O)NC7=O)C6=O)c5)CC4)CC3)c2)nc1C(=O)O[C@@H](C(=O)Nc1ccc(F)cc1)c1ccccc1 (stereo partly drawn) [TDH-496, (R)-2-((4-fluorophenyl)amino)-2-oxo-1-phenylethyl 3-amino-6-(1-(1-(2-((1-(2-(3-((1-(2,6-dioxopiperidin-3-yl)-2,5-dioxo-2,5-dihydro-1H-pyrrol-3-yl)amino)phenyl)acetyl)piperidin-4-yl)oxy)ethyl)piperidin-4-yl)-1H-pyrazol-4-yl)pyrazine-2-carboxylate]	27.23	7.85	87.42	81.07	2.2
COc1ccc(C(=O)NCC2CCC(CN3CCC(n4cc(-c5cnc(N)c(C(=O)O[C@@H](C(=O)Nc6ccc(F)cc6)c6ccccc6)n5)cn4)CC3)CC2)cc1N1CCC(=O)NC1=O (stereo partly drawn) [TDH-497, (R)-2-((4-fluorophenyl)amino)-2-oxo-1-phenylethyl 3-amino-6-(1-(1-(((1r,4r)-4-((3-(2,4-dioxotetrahydropyrimidin-1(2H)-yl)-4-methoxybenzamido)methyl)cyclohexyl)methyl)piperidin-4-yl)-1H-pyrazol-4-yl)pyrazine-2-carboxylate]	13.48	−1.14	73.89	57.10	0.61
Nc1ncc(-c2cnn(C3CCN(C[C@H]4CC[C@H](CNC(=O)Cc5cccc(NC6=CC(=O)N(C7CCC(=O)NC7=O)C6=O)c5)CC4)CC3)c2)nc1C(=O)O[C@@H](C(=O)Nc1ccc(F)cc1)c1ccccc1 (stereo partly drawn) [TDH-498, (R)-2-((4-fluorophenyl)amino)-2-oxo-1-phenylethyl 3-amino-6-(1-(1-(((1r,4r)-4-((2-(3-((1-(2,6-dioxopiperidin-3-yl)-2,5-dioxo-2,5-dihydro-1H-pyrrol-3-yl)amino)phenyl)acetamido)methyl)cyclohexyl)methyl)piperidin-4-yl)-1H-pyrazol-4-yl)pyrazine-2-carboxylate]	23.9	16.6	86.68	89.27	3.7
COc1ccc(C(=O)N2CCC(CN3CCC4(CC3)CC(N3CCC(n5cc(-c6cnc(N)c(C(=O)O[C@@H](C(=O)Nc7ccc(F)cc7)c7ccccc7)n6)cn5)CC3)C4)CC2)cc1N1CCC(=O)NC1=O [TDH-499, (R)-2-((4-fluorophenyl)amino)-2-oxo-1-phenylethyl 3-amino-6-(1-(1-(7-((1-(3-(2,4-dioxotetrahydropyrimidin-1(2H)-yl)-4-methoxybenzoyl)piperidin-4-yl)methyl)-7-azaspiro[3.5]nonan-2-yl)piperidin-4-yl)-1H-pyrazol-4-yl)pyrazine-2-carboxylate]	45.83	11.8	90.60	91.41	0.41
Nc1ncc(-c2cnn(C3CCN(C4CC5(CCN(CC6CCN(C(=O)Cc7cccc(NC8=CC(=O)N(C9CCC(=O)NC9=O)C8=O)c7)CC6)CC5)C4)CC3)c2)nc1C(=O)O[C@@H](C(=O)Nc1ccc(F)cc1)c1ccccc1 (stereo partly drawn) [TDH-500, (R)-2-((4-fluorophenyl)amino)-2-oxo-1-phenylethyl 3-amino-6-(1-(1-(7-((1-(2-(3-((1-(2,6-dioxopiperidin-3-yl)-2,5-dioxo-2,5-dihydro-1H-pyrrol-3-yl)amino)phenyl)acetyl)piperidin-4-yl)methyl)-7-azaspiro[3.5]nonan-2-yl)piperidin-4-yl)-1H-pyrazol-4-yl)pyrazine-2-carboxylate]	25.16	0.16	80.41	83.21	0.64
